The values below are quoted from earlier work in patent US20140135284A1, “COMPOSITION OF AQUEOUS BUFFER SOLUTION FOR THE TREATMENT OF CELLULAR ENVIRONMENT AND ION CHANNELS AND METHODS FOR USING SAME” (priority 2007, published 2014).

The subject of the data set is inflammation. The following applies: acid species studied, small reductions in pH.

With `Cl` [Hydrochloric acid], the effect on inflammation entry is “upregulated inflammation”.
Regarding `CC(O)C(=O)O` (centres unmarked) [Lactic acid], the effect on inflammation entry was “effective anti-inflammatory”.
